From ChEMBL document CHEMBL1201862, “PubChem BioAssay data set” (2004) come the findings set out here.

Test systems include DLD-1; M19-MEL; HOP-18; XF498; RXF 631; DMS-273; KM-20L2; SNB-78; DMS-114.
Experiment in all cases: NCI-60 cell line screen, 48 h

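All cell lines were grown in 96-well plates and treated with compound for 48 hours. The concentration for 50% growth inhibition is given as GI50.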 Active and inactive are the calls of the source. Rule as the data show it: active = GI50 up to about 1.1 µM and inactive = higher.

On to `COc1ccc(C2=C(Cl)c3cc(OC)c(OC)cc3C2Cl)cc1OC` (stereo unspecified), for which the GI50 with DLD-1 was 15.3 µM (inactive); in the test on M19-MEL, 17.3 µM (inactive); with HOP-18 it was 21.7 µM (inactive); with XF498, 16 µM (inactive); in the test with RXF 631, 19.1 µM (inactive); in the test with DMS-273, 14.3 µM (inactive). Further, the GI50 was 15.6 µM (inactive) with KM-20L2 and 20.7 µM (inactive) in the test on SNB-78.
Take `CC(=O)N1c2ccccc2C2=CC3C4C(=O)N(c5ccccc5)C(=O)C4C21C1C(=O)N(c2ccccc2)C(=O)C31` (stereo unspecified): the GI50 with DLD-1 is 23.4 µM (inactive); in the test with HOP-18 it was 34.4 µM (inactive); with DMS-114 it was 4.27 µM (inactive); in the test on XF498, 10.9 µM (inactive); in the test with KM-20L2 it was 30.3 µM (inactive); in the test on SNB-78, 84.5 µM (inactive).
Consider `COc1cc(CNc2nc3ccc(C(F)(F)F)cc3nc2-c2ccccc2)cc(OC)c1OC`, for which the GI50 was 48.6 µM (inactive) with DLD-1; 46.2 µM (inactive) in the test with M19-MEL; 56.1 µM (inactive) in the test with XF498; > 100 µM (inactive) in the test on RXF 631; 39 µM (inactive) with DMS-273; > 100 µM (inactive) in the test on KM-20L2. Moreover, the GI50 in the test on SNB-78 was 14.5 µM (inactive).
As for `NC(=O)CN(CC(N)=O)C(N)=O`, the GI50 in the test on M19-MEL, with HOP-18, with DMS-114, in the test with XF498, with DMS-273 and in the test on KM-20L2 was > 100 µM (inactive) in each case. Further, the GI50 in the test on SNB-78 was > 100 µM (inactive).
Take `COc1cc(Br)c(C2OCCCO2)cc1OCc1ccccc1`: the GI50 in the test on DLD-1 was 39.8 µM (inactive); in the test with M19-MEL, > 100 µM (inactive); with DMS-114, 47.1 µM (inactive); in the test on RXF 631, > 100 µM (inactive); with DMS-273, 37.6 µM (inactive); in the test with KM-20L2, > 100 µM (inactive). Further, in the test with SNB-78, the GI50 is 61.4 µM (inactive).
`CN(Cc1ccccc1)c1nc(=[N+](C)C)ss1`: the GI50 was > 100 µM (inactive) in the test with DLD-1; 41.9 µM (inactive) with M19-MEL; > 100 µM (inactive) in the test with HOP-18; 20.3 µM (inactive) in the test on DMS-114; > 100 µM (inactive) in the test with XF498; 67.5 µM (inactive) with RXF 631. The GI50 is 60.7 µM (inactive) with DMS-273, > 100 µM (inactive) with KM-20L2 and > 100 µM (inactive) in the test on SNB-78.
Consider `CNC(=O)N(CCCCC(NC(C)=O)C(=O)NCc1ccccc1)Cc1ccccc1` (stereo unspecified), for which the GI50 in the test with DLD-1, with M19-MEL, with DMS-114, in the test on XF498, in the test with RXF 631 and in the test on DMS-273 was > 100 µM (inactive) in each case. The GI50 with KM-20L2 and with SNB-78 was > 100 µM (inactive) throughout.
As for `CC1CSC(=S)N1C(=O)N1C(=S)SCC1C` (stereo unspecified), the GI50 is 19.3 µM (inactive) in the test on DLD-1; 25.6 µM (inactive) in the test with M19-MEL; 53.6 µM (inactive) in the test on HOP-18; 38.3 µM (inactive) in the test with DMS-114; 20.1 µM (inactive) with DMS-273; 38.7 µM (inactive) with KM-20L2. Also, the GI50 in the test on SNB-78 is 43.2 µM (inactive).
Consider `CC1=CC(=O)c2cccc(O)c2C1=O`, for which the GI50 was 1.66 µM (inactive) in the test with DLD-1; 1.98 µM (inactive) with M19-MEL; 1.7 µM (inactive) with HOP-18; 2.74 µM (inactive) in the test on DMS-114; 1.79 µM (inactive) in the test on XF498; 2.42 µM (inactive) with DMS-273. Moreover, the GI50 in the test on KM-20L2 is 20.5 µM (inactive); with SNB-78, > 32.1 µM (inactive).
As for `O=C1c2ccncc2C(=O)c2c(O)ccc(O)c21`, the GI50 in the test on M19-MEL is 1.32 µM (inactive); with HOP-18, 12.9 µM (inactive); in the test with DMS-114, 3.01 µM (inactive); with XF498, 4.16 µM (inactive); in the test with KM-20L2, 2.88 µM (inactive).
Take `C1CSCCSCCCS[C@@H]2CCCCC2SC1` (stereo partly specified): the GI50 in the test with DLD-1 was > 100 µM (inactive); with M19-MEL it was > 100 µM (inactive); with HOP-18 it was > 100 µM (inactive); in the test on DMS-114, 28.2 µM (inactive); in the test with DMS-273, > 100 µM (inactive); in the test on KM-20L2, > 100 µM (inactive). For the same molecule, the GI50 in the test with SNB-78 was > 100 µM (inactive).
Regarding `O=C(NCCCN1CCN(CCCNC(=O)c2cnc3ccccc3n2)CC1)c1cnc2ccccc2n1`, the GI50 in the test with DLD-1 is > 100 µM (inactive); in the test on M19-MEL it was > 100 µM (inactive); in the test on HOP-18 it was > 100 µM (inactive); in the test with DMS-114 it was 70.1 µM (inactive); in the test with RXF 631 it was > 100 µM (inactive); in the test with DMS-273 it was > 100 µM (inactive). Besides, the GI50 in the test with KM-20L2 and in the test on SNB-78 was > 100 µM (inactive) each time.
In the case of `COc1ccc(C(C#N)NNc2nc(C)cc(O)n2)cc1OC` (stereo unspecified), the GI50 with DLD-1, in the test on M19-MEL, with HOP-18, with DMS-114, in the test with DMS-273 and in the test on KM-20L2 was > 100 µM (inactive) in each case. The GI50 in the test with SNB-78 is > 100 µM (inactive).
`O=C1O[C@@H](c2ccccc2)C[C@@H]1CN1CCOCC1`: the GI50 in the test on DLD-1, with DMS-114, in the test with XF498, in the test with RXF 631, in the test with KM-20L2 and with SNB-78 was > 100 µM (inactive) throughout.
`COc1cc(NS(C)(=O)=O)ccc1NCc1c2ccccc2nc2ccccc12`: the GI50 in the test with DLD-1 was 17.1 µM (inactive); in the test with M19-MEL, > 10 µM (inactive); in the test on DMS-114, 17.3 µM (inactive); with XF498, 33.4 µM (inactive); in the test on RXF 631, 15 µM (inactive); in the test with DMS-273 it was 28.4 µM (inactive). In addition, the GI50 in the test on KM-20L2 is 50.8 µM (inactive).
On to `O=C1N/C(=C\[N+](=O)[O-])c2ccccc21`, for which the GI50 in the test on DLD-1, in the test on M19-MEL, with HOP-18, in the test with DMS-114, with RXF 631 and in the test on DMS-273 was > 100 µM (inactive) throughout. Besides, the GI50 with KM-20L2 and in the test with SNB-78 was > 100 µM (inactive) in each case.
Turning to `COc1ccc(C2=NOP(c3ccccc3)(c3ccccc3)(c3ccccc3)C2)cc1`, the GI50 was 20.8 µM (inactive) in the test with DLD-1; 21.7 µM (inactive) with M19-MEL; 24.9 µM (inactive) in the test on HOP-18; 8.61 µM (inactive) with DMS-114; 20.7 µM (inactive) with XF498; 22.4 µM (inactive) in the test with RXF 631. Further, the GI50 with DMS-273 was 16.6 µM (inactive); in the test on KM-20L2 it was 10 µM (inactive); in the test on SNB-78, 36.5 µM (inactive).
Consider `O=[N+]([O-])CCc1cccc([N+](=O)[O-])c1`, for which the GI50 in the test on DLD-1, in the test on M19-MEL, with HOP-18, in the test with DMS-114, in the test with DMS-273 and in the test on KM-20L2 was > 100 µM (inactive) in each case. Besides, the GI50 in the test on SNB-78 is > 100 µM (inactive).
Regarding `COc1cc([C@@H]2c3cc4c(cc3[C@@H](OC3OC5CO[C@@H](c6cccs6)OC5C(O)C3O)[C@H]3COC(=O)[C@H]23)OCO4)cc(OC)c1O` (stereo partly specified), the GI50 with DLD-1 is 2.18 µM (inactive); in the test with M19-MEL it was 0.828 µM (active); with HOP-18, 1.57 µM (inactive); in the test on XF498, 0.31 µM (active); in the test on DMS-273, 0.084 µM (active); with KM-20L2 it was 2.12 µM (inactive). The GI50 in the test on SNB-78 is 1.08 µM (active).
Regarding `CCCN(CCCCC(NC(C)=O)C(=O)NCc1ccccc1)C(=O)NCCCl` (stereo unspecified), the GI50 in the test with DLD-1, with M19-MEL, with HOP-18, in the test with DMS-114, in the test with XF498 and with RXF 631 was > 100 µM (inactive) each time. Also, the GI50 in the test with DMS-273 and in the test on KM-20L2 was > 100 µM (inactive) throughout.
As for `COc1cc2cc3c4c(cc(OC)c(OC)c4c2cc1OC)CCN3C(=O)CCC(=O)NCCCN(C)C`, the GI50 was 16.9 µM (inactive) in the test with DLD-1; 22.8 µM (inactive) with M19-MEL; > 100 µM (inactive) with HOP-18; 27.8 µM (inactive) in the test on DMS-114; 24.9 µM (inactive) in the test on XF498; 73.1 µM (inactive) in the test with DMS-273. Further, the GI50 is 24.4 µM (inactive) with KM-20L2 and > 100 µM (inactive) in the test on SNB-78.
As for `C#CCNC(=O)NC(CCCNC(=O)OCc1ccccc1)C(=O)OCc1ccccc1` (stereo unspecified), the GI50 in the test with DLD-1 is > 100 µM (inactive); in the test with M19-MEL, 77.1 µM (inactive); with DMS-114, > 100 µM (inactive); in the test on XF498 it was 12.9 µM (inactive); in the test with RXF 631, > 100 µM (inactive); with DMS-273, > 100 µM (inactive). Also, the GI50 with KM-20L2 and with SNB-78 was > 100 µM (inactive) throughout.
In the case of `CC(=O)O[C@H]1CCC2[C@@H]3CCC4Nc5c(cnn5-c5ccccc5)C[C@]4(C)C3CC[C@@]21C` (stereo partly specified), the GI50 is 32.7 µM (inactive) in the test on DLD-1; 11.7 µM (inactive) with M19-MEL; 31.8 µM (inactive) in the test with HOP-18; 11.7 µM (inactive) with DMS-114; 6.52 µM (inactive) with XF498; 14.9 µM (inactive) in the test on RXF 631. The GI50 with DMS-273 is 3.18 µM (inactive); in the test with KM-20L2, 8 µM (inactive); with SNB-78, 14.4 µM (inactive).
Take `CC1CCC2(C)C(CC=C(C=O)C2(O)C=O)C12CO2` (stereo unspecified): the GI50 is 1.73 µM (inactive) with M19-MEL; 1.57 µM (inactive) in the test with DMS-114; 2.17 µM (inactive) in the test with XF498; 1.99 µM (inactive) in the test on RXF 631; 1.79 µM (inactive) in the test on DMS-273; 2.49 µM (inactive) in the test on KM-20L2. Besides, the GI50 with SNB-78 was 2.07 µM (inactive).
For `CCc1ccccc1-n1c2nc(=O)n(C)c(=O)c-2nc2ccccc21`, the GI50 in the test on DLD-1 was 16.3 µM (inactive); in the test on M19-MEL it was 1.85 µM (inactive); in the test with HOP-18 it was 11.9 µM (inactive); with DMS-114 it was 3.83 µM (inactive); in the test with XF498 it was 10.3 µM (inactive); in the test with DMS-273 it was 8.71 µM (inactive). For the same molecule, the values for the GI50 in the test on KM-20L2 and in the test on SNB-78 were 4.08 µM (inactive) and 16.9 µM (inactive), respectively.
